Assay results: article PMC8515607 (ACS Omega, 2021)
Where two headings read alike, the source gives them in different places.

Legend:
[1] = test system: MCF-7; experiment: cells; assay type: cell-based, human; conditions: for IC50: Homo sapiens, MCF7, 72 h, read-out: MCF-7 IC50 (nM); for MCF-7 SI: selectivity index = IC50 BALB/3T3 / IC50 MCF-7
Excerpt: (§1) The A549 and MCF7 cell lines were purchased from the European Collection of Authenticated Cell Cultures (ECACC, Salisbury, U.K., 86012804 and 86012803). The LoVo cell line was purchased from the American Type Culture Collection (CCL-229, ATCC, Manassas, VA), and LoVo/DX by courtesy of Prof. E. Borowski (Technical University of Gdańsk, Gdańsk, Poland). The BALB/3T3 cell line was purchased from the American Type Culture Collection (CCL-163, ATCC, Manassas, VA). All of the cell lines are maintained in the Institute of Immunology and Experimental Therapy (IIET), Wroclaw, Poland.
(§2) A549 cells were cultured in a mixture of OptiMEM and Roswell Park Memorial Institute (RPMI) 1640 (1:1) medium (IIET, Wroclaw, Poland), supplemented with 10% fetal bovine serum HyClone (GE Healthcare) and 2 mM L-glutamine (Sigma-Aldrich, Germany). MCF7 cells were cultured in a mixture of Eagle’s medium (IIET, Wroclaw, Poland), supplemented with 10% fetal bovine serum, 2 mM L-glutamine, and insulin (Sigma-Aldrich, Germany). LoVo and LoVo/DX cells were cultured in F12K medium (Corning), supplemented with 10% fetal bovine serum HyClone (GE Healthcare) and 0.1 μg/mL doxorubicin (Accord) for LoVo/DX. BALB/3T3 fibroblasts were cultured in Dulbecco’s medium (Gibco), supplemented with 10% fetal bovine serum (GE Healthcare) and 2 mM L-glutamine (Sigma-Aldrich, Germany). All culture media contained antibiotics: 100 U/mL penicillin (Polfa-Tarchomin, Poland) and 0.1 mg/mL streptomycin (Sigma-Aldrich, Germany). All cell lines were cultured during entire experiment in humid atmosphere at 37 °C and 5% CO2.
(§3) All cell lines were exposed to each tested agent at different concentrations in the range 100–0.00001 μg/mL for 72 h. The cells were also exposed to the reference drug cisplatin (Teva Pharmaceuticals, Poland) and doxorubicin (Accord Healthcare Limited, U.K.). Additionally, all cell lines were exposed to dimethyl sulfoxide (DMSO) (solvent used for tested compounds) (POCh, Poland) at concentrations corresponding to those present in tested agents dilutions. After 72 h, sulforhodamine B (SRB) assay was performed.[57]
(§4) After 72 h of incubation with the tested compounds, the cells were fixed in situ by gently adding cold 50% trichloroacetic acid (TCA) (POCh, Poland) and were incubated at room temperature for 1 h. Then, the wells were washed four times with water and air-dried. Next, 0.1% solution of sulforhodamine B (Sigma-Aldrich, Germany) in 1% acetic acid (POCh, Poland) was added to each well and the plates were incubated at room temperature for 0.5 h. After incubation time, unbound dye was removed by washing plates four times with 1% acetic acid, whereas stain bound to cells was solubilized with 10 mM Tris base (Sigma-Aldrich, Germany). Absorbance of each solution was read at Synergy H4 Hybrid Multi-Mode Microplate Reader (BioTek Instruments) at the 540 nm wavelength.
(§5) IC50 values were calculated in Excel sheet using formulas adapted by Mateusz Psurski fromCheburator 0.4, Dmitry Nevozhay software (version 1.2.0 software by Dmitry Nevozhay, 2004–2014, http://www.cheburator.nevozhay.com, freely available) for each experiment.[58] Compounds at each concentration were tested in triplicate in a single experiment, and each experiment was repeated at least three times independently.

[2] = test system: A549; experiment: cells; assay type: cell-based, human; conditions: for IC50: Homo sapiens, A549, 72 h, read-out: A549 IC50 (nM), 72 h exposure, SRB, mean ± SD; for A549 SI: selectivity index = IC50 BALB/3T3 / IC50 A549
Excerpt: as §1, §2, §3, §4, §5

[3] = test system: LoVo/DX; experiment: cells; assay type: cell-based, human; conditions: for LoVo/DX RI: resistance index = IC50 LoVo/DX / IC50 LoVo; for LoVo/DX SI: selectivity index = IC50 BALB/3T3 / IC50 LoVo/DX
Excerpt: as §1, §2, §3, §4, §5

[4] = test system: LoVo; experiment: cells; assay type: cell-based, human; conditions: for IC50: Homo sapiens, LoVo, 72 h, read-out: LoVo IC50 (nM); for LoVo SI: selectivity index = IC50 BALB/3T3 / IC50 LoVo
Excerpt: as §1, §2, §3, §4, §5

[5] = test system: BALB/3T3; experiment: In vitro antiproliferative activity, SRB assay, normal fibroblasts BALB/3T3; assay type: cell-based; conditions: Mus musculus, BALB/3T3, normal murine embryonic fibroblasts, 72 h, mean ± SD
Excerpt: as §1, §2, §3, §4, §5

[6] = Homo sapiens, LoVo/DX, 72 h, read-out: LoVo/DX IC50 (nM), 72 h exposure, SRB, mean ± SD
[7] = read-out: LoVo/DX IC50, 72 h exposure, SRB, mean ± SD

| Compound | IC50 [1] | MCF-7 SI [1] | IC50 [2] | A549 SI [2] | IC50 [3, 6] | LoVo/DX RI [3] | LoVo/DX SI [3] | IC50 [4] | LoVo SI [4] | IC50 [5] | IC50 [3, 7] |
| --- | --- | --- | --- | --- | --- | --- | --- | --- | --- | --- | --- |
| CNc1ccc2c(cc1=O)[C@@H](n1cc(C3(O)CCCCC3)nn1)CCc1cc(OC)c(OC)c(OC)c1-2 [Compound 13] | 88 ± 50 nM | 1.1 | 94 ± 30 nM | 1.1 | 1700 ± 160 nM | 26 | 0.1 | 65 ± 33 nM | 1.5 | 100 ± 33 nM |  |
| CNc1ccc2c(cc1=O)[C@@H](n1cc(-c3ccccc3)nn1)CCc1cc(OC)c(OC)c(OC)c1-2 [Compound 14] | 10 ± 1.8 nM | 2.0 | 13 ± 2.6 nM | 1.5 | < 30 nM | 2.7 | 0.7 | 10 ± 0.8 nM | 2.0 | 20 ± 7.6 nM | 27 ± 7.6 nM |
| CNc1ccc2c(cc1=O)[C@@H](n1cc(-c3ccc(Cl)cc3)nn1)CCc1cc(OC)c(OC)c(OC)c1-2 [Compound 15] | 35 ± 14 nM | 2.6 | 39 ± 2.7 nM | 2.4 | 150 ± 35 nM | 3.2 | 0.6 | 47 ± 22 nM | 2.0 | 92 ± 20 nM |  |
| CNc1ccc2c(cc1=O)[C@@H](n1cc(-c3ccccn3)nn1)CCc1cc(OC)c(OC)c(OC)c1-2 [Compound 16] | 28 ± 12 nM | 1.5 | 35 ± 10 nM | 1.2 | 210 ± 65 nM | 7.8 | 0.2 | 27 ± 14 nM | 1.5 | 41 ± 4 nM |  |
| CNc1ccc2c(cc1=O)[C@@H](n1cc(COCc3ccccc3)nn1)CCc1cc(OC)c(OC)c(OC)c1-2 [Compound 17] | 6.1 ± 4.8 nM | 1.8 | 6.9 ± 5.3 nM | 1.6 | 84 ± 42 nM | 15 | 0.1 | 5.7 ± 4.9 nM | 1.9 | 11 ± 7.8 nM |  |
| CNc1ccc2c(cc1=O)[C@@H](n1cc(C(=O)O)nn1)CCc1cc(OC)c(OC)c(OC)c1-2 [Compound 20] | 1200 ± 390 nM | 1.8 | 1300 ± 330 nM | 1.6 | 3400 ± 890 nM | 2.8 | 0.6 | 1200 ± 350 nM | 1.8 | 2100 ± 750 nM |  |
| CNc1ccc2c(cc1=O)[C@@H](n1nnc(C(=O)O)c1C(=O)O)CCc1cc(OC)c(OC)c(OC)c1-2 [Compound 23] | 990 ± 82 nM | 1.2 | 1000 ± 240 nM | 1.2 | 2900 ± 390 nM | 3.4 | 0.4 | 860 ± 190 nM | 1.4 | 1200 ± 14 nM |  |
| CCCCCCCCCCCCCCCC(=O)OCc1cn([C@H]2CCc3cc(OC)c(OC)c(OC)c3-c3ccc(NC)c(=O)cc32)nn1 [Compound 24] | 11 ± 0.7 nM | 4.9 | 16 ± 5.2 nM | 3.4 | 3300 ± 280 nM | 170 | <0.1 | 19 ± 7 nM | 2.8 | 54 ± 20 nM |  |
| CNc1ccc2c(cc1=O)[C@@H](n1cc(COC(=O)CCC(F)(F)F)nn1)CCc1cc(OC)c(OC)c(OC)c1-2 [Compound 25] | 1.1 ± 0.4 nM | 6.1 | 1.3 ± 0.2 nM | 5.2 | 350 ± 56 nM | 160 | <0.1 | 2.2 ± 1.2 nM | 3.0 | 6.7 ± 2.4 nM |  |
| CNc1ccc2c(cc1=O)[C@@H](n1cc(COC(=O)CCNC(=O)OC(C)(C)C)nn1)CCc1cc(OC)c(OC)c(OC)c1-2 [Compound 26] | 1.1 ± 0.1 nM | 5.8 | 2.4 ± 0.7 nM | 2.7 | 700 ± 120 nM | 240 | <0.1 | 2.9 ± 1.2 nM | 2.2 | 6.4 ± 1.4 nM |  |
| CNc1ccc2c(cc1=O)[C@@H](n1cc(COC(=O)c3ccccc3Cl)nn1)CCc1cc(OC)c(OC)c(OC)c1-2 [Compound 27] | 2.4 ± 0.8 nM | 3.6 | 2.9 ± 0.6 nM | 3.0 | < 100 nM | 19 | 0.1 | 4.7 ± 1.7 nM | 1.9 | 8.7 ± 2 nM | 89 ± 18 nM |
| CNc1ccc2c(cc1=O)[C@@H](n1cc(COC(=O)c3ccncc3)nn1)CCc1cc(OC)c(OC)c(OC)c1-2 [Compound 28] | 3.9 ± 1.1 nM | 3.1 | 9.5 ± 2.9 nM | 1.3 | 1000 ± 94 nM | 130 | <0.1 | 7.9 ± 3.3 nM | 1.5 | 12 ± 1.1 nM |  |
| CNc1ccc2c(cc1=O)[C@@H](n1cc(CNC(=O)C(C)C)nn1)CCc1cc(OC)c(OC)c(OC)c1-2 [Compound 29] | 12 ± 3.2 nM | 4.0 | 12 ± 2.4 nM | 4.0 | 2700 ± 600 nM | 190 | <0.1 | 14 ± 2.3 nM | 3.4 | 48 ± 14 nM |  |
